Our source for the IC50 values is ChEMBL document CHEMBL1144835, “Bioactive metabolites from the South African marine mollusk Trimusculus costatus” (J Nat Prod, 2008).

Structures are written as SMILES.

This assay in a line: Cytotoxicity against human WHCO1 cells after 24 hrs by MTT assay. The format is functional, cell-based. The note with it: WHCO1, 24 h.

What is called IC50 is the concentration needed to halve the response being measured. The low end stands for greater potency in that assay, the high end for weaker potency in that assay. As to `CC(=O)O[C@H]1CC(C)(C)[C@@H]2[C@H](OC(C)=O)[C@@H](OC(C)=O)C(C)=C(CC/C(C)=C/CO)[C@@]2(C)C1`, the IC50 was found to be 24 µM.
Take `CC(=O)OC/C=C(\C)CCC1=C(C)[C@H](OC(C)=O)[C@@H](OC(C)=O)[C@H]2C(C)(C)CCC[C@]12C`: the IC50 was found to be 84 µM.
Next, `CC(=O)O[C@@H]1[C@@H](OC(C)=O)C(C)=C(CC/C(C)=C/CO)[C@@]2(C)CCCC(C)(C)[C@H]12`: 25 µM.
Then `CC(C)CCC[C@@H](C)[C@H]1CC[C@@H](C2=CC(=O)C3=C[C@H](O)CC[C@]3(C)C2=O)[C@]1(C)CCO`, with 3 µM.
